The values that follow come from patent publication US9340532B2, “Methods and compositions for inhibiting CNKSR1” (PHUSIS THERAPEUTICS, INC., priority 2012, dated 2016).

The test system of data set [1] is H1975 (KRAS wildtype cell line). Nature of the data set: Proliferation Assay H1975. In kind it is cell-based. The following applies: Homo sapiens, NCI-H1975, n = 1. The gist of the method: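 Cells plated 2000 per well, allowed 24 h to attach, then exposed 72 h to agents (0-100 μM for isogenic lines; 0.01 to 50 μM for the RPMI 1640/10% FBS-cultured 30-line NSCLC panel). MTS read at 490 nm after 2 h, normalized to no-cell and no-drug controls; IC50 from curve fitting.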

The target of data set [2] is T1, membrane colocalisation of CNKSR1 and mutant-KRas (Homo sapiens, UniProt Q969H4).
T1 construct: fluorescent protein (GFP or mRFP); expressed in transfected cells; host or cells: HEK293T
T1 sequence (Q969H4 1-720): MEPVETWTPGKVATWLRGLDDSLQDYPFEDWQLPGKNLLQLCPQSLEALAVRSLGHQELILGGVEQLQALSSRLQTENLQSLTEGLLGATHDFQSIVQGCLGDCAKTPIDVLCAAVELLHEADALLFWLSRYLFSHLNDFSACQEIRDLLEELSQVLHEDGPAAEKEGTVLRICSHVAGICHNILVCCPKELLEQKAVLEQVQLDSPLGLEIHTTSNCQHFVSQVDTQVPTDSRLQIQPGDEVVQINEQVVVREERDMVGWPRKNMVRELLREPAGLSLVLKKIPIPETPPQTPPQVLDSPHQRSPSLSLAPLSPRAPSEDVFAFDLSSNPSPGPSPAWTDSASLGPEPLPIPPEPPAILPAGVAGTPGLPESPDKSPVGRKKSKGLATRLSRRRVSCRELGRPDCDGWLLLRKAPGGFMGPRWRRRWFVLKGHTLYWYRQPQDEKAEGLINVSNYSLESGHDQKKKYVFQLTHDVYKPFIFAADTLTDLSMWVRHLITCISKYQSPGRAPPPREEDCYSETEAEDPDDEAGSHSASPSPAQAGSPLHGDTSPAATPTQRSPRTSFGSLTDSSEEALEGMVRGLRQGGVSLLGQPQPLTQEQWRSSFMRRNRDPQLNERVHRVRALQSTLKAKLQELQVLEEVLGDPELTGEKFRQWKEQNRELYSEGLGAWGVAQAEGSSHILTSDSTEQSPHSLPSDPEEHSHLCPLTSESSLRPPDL
Nature of the data set: Confocal imaging of CNKSR1 / mutant KRas colocalisation. It counts as cell-based. The following applies: FIG. 12. Here is the method:
HEK293T cells were co-transfected with CNK and either wild type or G12D mutant KRAS. Twenty-four hours post-transfection, cells were seeded on glass coverslips and allowed to grow a further 24 h and then serum deprived overnight. Cells were fixed with 4% (w/v) paraformaldehyde pH 8.0 for 20 min at room temperature. Following 6-7 washes with PBS (pH 8.0) the coverslip was mounted onto a slide with mounting medium (0.1% p-phenylenediamine/75% glycerol in PBS at pH 7.5-8.0). Confocal laser scanning microscopy was performed with a Leica SP5 confocal microscope system with 63× oil-immersion objective (numerical aperture NA=1.4), a line scan speed of 600 Hz, with image size of 1024×1024 pixels. GFP was excited with an argon-visible light laser tuned to 488 nm, mRFP were excited with a […] tuned to 543 nm GFP and RFP fluorescence emissions were collected using a photomultiplier tube via 514/10 nm and 595/10 nm band selections respectively.

Data set [3] in a line: Mouse pharmacokinetics (iv). In kind it is in vivo.
The target of data set [4] is T2, rHuman carboxyesterase 2 (Homo sapiens, UniProt O00748).
T2 sequence (O00748 27-559): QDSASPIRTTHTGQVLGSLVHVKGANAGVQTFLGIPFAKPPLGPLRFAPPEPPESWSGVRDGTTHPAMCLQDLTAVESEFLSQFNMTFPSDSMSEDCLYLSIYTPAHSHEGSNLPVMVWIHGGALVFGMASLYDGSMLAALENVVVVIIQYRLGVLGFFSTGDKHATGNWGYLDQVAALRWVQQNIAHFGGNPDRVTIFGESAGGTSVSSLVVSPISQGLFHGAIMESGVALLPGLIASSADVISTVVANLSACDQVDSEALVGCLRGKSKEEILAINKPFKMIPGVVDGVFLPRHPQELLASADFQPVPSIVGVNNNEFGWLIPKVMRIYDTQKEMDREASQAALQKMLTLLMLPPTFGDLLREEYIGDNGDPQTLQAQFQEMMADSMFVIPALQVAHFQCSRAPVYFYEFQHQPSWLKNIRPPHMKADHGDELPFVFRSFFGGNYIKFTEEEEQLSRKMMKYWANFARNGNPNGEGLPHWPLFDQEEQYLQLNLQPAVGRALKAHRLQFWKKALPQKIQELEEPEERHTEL
The data set is described as follows: Stability with carboxyesterase 2. In kind it is in vitro ADME. To be noted: rHuman carboxyesterase 2 24 U/ml, pH 7.4, 37° C.

SMILES strings stand for the structures.

For orientation: IC50 means the concentration that inhibits the measured activity by half. Lower therefore signals inhibition by little substance. Compound `CCOC(=O)Cc1nn(Cc2nc(-c3ccc(C)cc3)cs2)c(=O)c2ccccc12` [Compound 7] came in with an IC50 in data set [1] of 45 µM. Further, in data set [2], the “membrane colocalisation of CNKSR1 and mutant-KRas at the plasma membrane” value is reported as “blocking”; the “total mutant KRas protein in the cell” value is given as “lower”. The compound also had a t1/2β in data set [3] of 3 UN min. This compound had a Half life in data set [4] of 1.65 h.
